{"source": "patent US20060030536A1", "about": "“Combination therapies for cancer and proliferative angiopathies” (University of South Florida, priority 2004, published 2006)", "key": {"Stat3 [1]": {"molecular_target": "Stat3 (Homo sapiens, UniProt P40763)", "sequence (P40763 whole entry)": "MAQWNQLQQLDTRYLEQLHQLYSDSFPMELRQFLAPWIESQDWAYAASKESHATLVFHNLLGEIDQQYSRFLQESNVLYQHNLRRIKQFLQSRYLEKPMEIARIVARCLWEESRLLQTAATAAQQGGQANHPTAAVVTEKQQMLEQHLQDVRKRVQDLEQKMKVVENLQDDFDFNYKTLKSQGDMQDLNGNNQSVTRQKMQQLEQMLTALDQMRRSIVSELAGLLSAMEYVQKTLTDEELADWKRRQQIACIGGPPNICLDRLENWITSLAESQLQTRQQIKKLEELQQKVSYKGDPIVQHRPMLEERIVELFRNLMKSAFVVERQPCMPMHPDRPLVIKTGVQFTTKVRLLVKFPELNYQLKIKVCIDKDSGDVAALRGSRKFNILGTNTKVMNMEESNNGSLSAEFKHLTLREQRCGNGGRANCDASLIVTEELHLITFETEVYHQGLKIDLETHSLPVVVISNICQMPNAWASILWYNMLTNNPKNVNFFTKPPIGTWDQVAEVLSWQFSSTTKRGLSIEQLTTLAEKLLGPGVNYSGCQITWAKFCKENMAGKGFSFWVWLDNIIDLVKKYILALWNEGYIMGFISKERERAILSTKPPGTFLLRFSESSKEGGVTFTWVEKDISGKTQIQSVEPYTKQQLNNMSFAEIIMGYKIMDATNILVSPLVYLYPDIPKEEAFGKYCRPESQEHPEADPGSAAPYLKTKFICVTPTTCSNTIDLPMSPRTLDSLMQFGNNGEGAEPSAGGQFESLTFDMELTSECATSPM", "conditions": "cited from earlier work"}, "Jak2": {"test_system": "Jak2", "conditions": "cited from earlier work"}, "HIF-1α": {"test_system": "HIF-1α", "experiment": "Western blot of HIF-1α protein in tumor cells", "format": "cell-based, human", "conditions": "for HIF-1α protein level: A2058 (also A2056) human melanoma cells, constitutively active c-Src"}, "VEGF": {"test_system": "VEGF", "experiment": "Western blot of VEGF protein in tumor cells", "format": "cell-based, human", "from_the_text": "[…] Fifty […] of nuclear or whole-cell extracts was used for Western blot analysis. HIF-1α rabbit polyclonal antibody (H-206) (1:500 dilution), HIF-1β mouse monoclonal antibody (1:1,500 dilution), AKT1 mouse monoclonal, anti-phospho-AKT rabbit polyclonal, anti-VEGF monoclonal antibody (1:1,000 dilution) were used for the Western blot analyses. Horseradish peroxidase-conjugated sheep anti-mouse and donkey anti-rabbit or anti-goat secondary antibodies were used at 1:2,000 and 1:5,000 dilutions, respectively. The signal was developed with SuperSignal West Pico Chemiluminescent Substrate (PIERCE)."}, "Stat3 [2]": {"test_system": "Stat3", "experiment": "EMSA of Stat3 DNA-binding activity in nuclear extracts", "format": "cell-based, human", "conditions": "for Stat3 DNA-binding activity: A2058 (also A2056) human melanoma cells", "protocol": "Nuclear extracts (1-8 μg of total protein) were incubated with the ^32P-radiolabled hSEE (high-affinity Sis-Inducible Element) oligonucleotide probe. Protein-DNA complexes were resolved by 5% non-denatured polyacrylamide gel electrophoresis (PAGE) and specific STAT/DNA complexes were detected by autoradiography."}, "MDA-MB-468 cells [3]": {"test_system": "MDA-MB-468 cells", "experiment": "Trypan blue dye exclusion assay (cell death)", "format": "cell-based, human", "conditions": "48 h", "protocol": "MDA-MB-468 cells were treated with vehicle DMSO (control), 10 or 20 μM LY294002; 0.05 EM JSI-124; 10+0.05 μM LY294002+JSI-124; or 20+0.05 μM LY294002+JSI-124 for 48 h, followed by trypan blue dye exclusion assay. The numbers indicate the percentage of dead cells. Standard deviations are shown with error bars.\nThe trypan blue dye exclusion assay was performed by mixing 20 μl of cell suspension with 20 μl of 0.4% trypan blue dye before injecting into a hemocytometer and counting. The number of cells that absorbed the dye and those that exclude the dye were counted, from which the percentage of nonviable cell number to total cell number was calculated.\nTo determine whether the combination treatment is more beneficial than single agent treatment to induce breast cancer cell death, MDA-MB-468 cells were treated with the indicated concentrations of either drug alone or in combinations for 48 h, followed by trypan blue dye incorporation assays."}, "MDA-MB-468 cells [4]": {"test_system": "MDA-MB-468 cells", "experiment": "TUNEL assay (apoptosis)", "format": "cell-based, human", "conditions": "single agents: 20 μM LY294002; 0.1 or 0.05 μM JSI-124; 48 h", "protocol": "The assay was performed following manufacturer's instruction using the APO-Direct kit. […] After removing the DNA labeling solution by rinsing cells with Rinsing Buffer, the cells were incubated with the Propidium Iodide/RNase A solution, incubated for 30 min at room temperature in the dark, and then analyzed by flow cytometry within 3 h of staining."}, "[5]": {"test_system": "MDA-MB-468 and MDA-MB453 cells", "experiment": "Flow cytometry cell cycle analysis", "format": "cell-based, human", "conditions": "20 μM LY294002, 0.05 μM JSI-124, 48 h", "protocol": "MDA-453 cells were treated with vehicle DMSO (control), 20 μM LY294002; 0.05 μM JSI-124 or 20+0.05 μM LY294002+JSI-124 for 48 h, followed by flow cytometry analysis.\nCell cycle analysis based on DNA content was performed as we described previously. At each time point, cells were harvested, counted, and washed twice with wash buffer (1 mg glucose per ml PBS). Cells (2×10^6) were suspended in 0.5 ml PBS, fixed in 5 ml of 70% ethanol for over night at −20° C., centrifuged, washed once with PBS and resuspended again in 1 ml of propidium iodide staining solution (50 jig propidium iodide, 100 units RNase A and 1 mg glucose per ml PBS), and incubated at room temperature in the dark for 30 min. The cells were then analyzed with FACScan (Becton Dickinson Immunocytometry, Calif.), ModFit LT and WinMDI V.2.8 cell cycle analysis software (Verity Software; Topsham, Me.). The cell cycle distribution is shown as the percentage of cells containing G1, S, G2, and M DNA judged by propidium iodide staining.\nTo determine the effect of combination treatment on cell cycle changes, MDA-MB-468 and MDA-MB453 cells were treated with the indicated concentrations of LY294002, JSI-124 or their combinations for 48 h, followed by flow cytometry analysis."}, "AKT1 mRNA": {"test_system": "AKT1 mRNA", "experiment": "Microarray gene expression database, AKT1 mRNA", "format": "cell-based", "conditions": "MDA-MB435 human breast cancer cell line"}, "[6]": {"test_system": "PI3k/Akt or Mek/Erk pathways", "conditions": "cited from earlier work"}, "[7]": {"conditions": "EGF stimulation, DU145 human prostate cancer cells (data not shown)"}}}
{"molecule": "CC(=O)OC(C)(C)/C=C/C(=O)[C@](C)(O)[C@H]1[C@H](O)C[C@@]2(C)[C@@H]3CC=C4[C@H](C[C@H](O)C(=O)C4(C)C)[C@]3(C)C(=O)C[C@]12C", "note": "[Cucurbitacin B]", "values": [{"measurement": "Stat3 activation", "setting": "Stat3 [1]", "result": "suppress both Stat3 and Jak2 activation"}, {"measurement": "Jak2 activation", "setting": "Jak2", "result": "suppress both Stat3 and Jak2 activation"}]}
{"molecule": "C[C@@H]1C[C@@H]([C@H](O)CC2CC(=O)NC(=O)C2)C(=O)[C@@H](C)C1", "note": "[cycloheximide]", "values": [{"measurement": "IL-6-induced HIF-1α expression", "setting": "HIF-1α; MCF-7 cells, 20 ng/ml IL-6, protein synthesis blocked", "result": "attenuation of HIF-1α expression"}]}
{"molecule": "CC(=O)OC(C)(C)/C=C/C(=O)[C@](C)(O)[C@H]1[C@H](O)C[C@@]2(C)[C@@H]3CC=C4[C@@H](C=C(O)C(=O)C4(C)C)[C@]3(C)C(=O)C[C@]12C", "note": "[Cucurbitacin E]", "values": [{"measurement": "Stat3 activation", "setting": "Stat3 [1]", "result": "suppress both Stat3 and Jak2 activation"}, {"measurement": "Jak2 activation", "setting": "Jak2", "result": "suppress both Stat3 and Jak2 activation"}]}
{"molecule": "CCC(O)[NH+]1CC[NH+](C(O)CC)CC1.[Cl][Pt-2]([Cl])([Cl])([Cl])([Cl])[Cl]", "note": "(centres unmarked) [IS3 295]", "values": [{"measurement": "HIF-1α expression", "setting": "HIF-1α; DU145 tumor cells", "result": "reduction in the expression of both HIF-1α and VEGF"}, {"measurement": "VEGF expression", "setting": "VEGF; DU145 tumor cells", "result": "reduction in the expression of both HIF-1α and VEGF"}, {"measurement": "Stat3 activity (DNA-binding)", "setting": "Stat3 [2]; DU145 prostate cancer cells", "result": "reduction in Stat3 activity in a dose-dependent manner"}]}
{"molecule": "CCN(CC)CCOc1ccc(Nc2ncc3cc(-c4c(Cl)cccc4Cl)c(=O)n(C)c3n2)cc1", "note": "[PD166285]", "values": [{"measurement": "HIF-1α protein level", "setting": "HIF-1α", "result": "dose-dependent reduction in HIF-1α protein level"}, {"measurement": "Stat3 DNA-binding activity", "setting": "Stat3 [2]", "result": "parallel reduction in Stat3 DNA-binding activity"}]}
{"molecule": "heregulin", "values": [{"measurement": "HIF-1α expression", "setting": "HIF-1α; MCF-7 cells, heregulin", "result": "induces HIF-1α expression"}, {"measurement": "VEGF expression", "setting": "VEGF; control MCF-7 cells, heregulin", "result": "upregulates VEGF expression"}, {"measurement": "activated Stat3", "setting": "Stat3 [2]; MCF-7 cells, heregulin at 100 ng/ml", "result": "detectable levels of activated Stat3"}]}
{"molecule": "O=c1cc(N2CCOCC2)oc2c(-c3ccccc3)cccc12", "note": "[LY294002, 2-(4-morpholinyl)-8-phenyl-4H-1-benzopyran-4-one]", "values": [{"measurement": "cell death", "setting": "MDA-MB-468 cells [3]; 20 μM LY294002 alone", "result": 14, "unit": "%"}, {"measurement": "apoptosis induction", "setting": "MDA-MB-468 cells [4]", "result": "Little apoptosis induction"}, {"measurement": "accumulation in G0/G1 phase", "setting": "[5]", "result": "not either single drug treatment"}]}
{"molecule": "Stat3 antisense oligonucleotide: antisense nucleic acid 5′-AAAAAGTGCCCAGATTGCCC-3′ used to knock down Stat3 expression (listed as DNA, chemistry not given here)", "values": [{"measurement": "HIF-1α upregulation", "setting": "HIF-1α; [7]", "result": "required for both HIF-1α and VEGF upregulation by EGF stimulation"}, {"measurement": "VEGF upregulation", "setting": "VEGF; [7]", "result": "required for both HIF-1α and VEGF upregulation by EGF stimulation"}, {"measurement": "AKT1 mRNA expression", "setting": "AKT1 mRNA", "result": "reduction in AKT1 mRNA expression"}]}
{"molecule": "CC(C)(O)/C=C/C(=O)[C@](C)(O)C1[C@H](O)C[C@@]2(C)C3CC=C4C(C=C(O)C(=O)C4(C)C)[C@]3(C)C(=O)C[C@]12C", "note": "(some centres unmarked) [JSI-124, Cucurbitacin I]", "values": [{"measurement": "cell death", "setting": "MDA-MB-468 cells [3]; 0.05 μM JSI-124 alone", "result": 7, "unit": "%"}, {"measurement": "apoptosis induction", "setting": "MDA-MB-468 cells [4]", "result": "Little apoptosis induction"}, {"measurement": "accumulation in G0/G1 phase", "setting": "[5]", "result": "not either single drug treatment"}, {"measurement": "Stat3 activation", "setting": "Stat3 [1]", "result": "suppress both Stat3 and Jak2 activation"}, {"measurement": "Jak2 activation", "setting": "Jak2", "result": "suppress both Stat3 and Jak2 activation"}, {"measurement": "inhibition of PI3k/Akt or Mek/Erk pathways", "setting": "[6]", "result": "does not inhibit the PI3k/Akt or Mek/Erk pathways"}]}
{"molecule": "Cc1cc(Nc2ncc3cc(-c4c(Cl)cccc4Cl)c(=O)n(C)c3n2)ccc1F", "note": "[PD180970]", "values": [{"measurement": "HIF-1α protein level", "setting": "HIF-1α", "result": "dose-dependent reduction in HIF-1α protein level"}, {"measurement": "Stat3 DNA-binding activity", "setting": "Stat3 [2]", "result": "parallel reduction in Stat3 DNA-binding activity"}]}
{"molecule": "Cucurbitacin Q", "values": [{"measurement": "Stat3 activation", "setting": "Stat3 [1]", "result": "suppress Stat3 activation"}, {"measurement": "Jak2 activation", "setting": "Jak2", "result": "not Jak2 activation"}]}
